{
  "source": "patent US8778961B2",
  "about": "“O-methylated rapamycin derivatives for alleviation and inhibition of lymphoproliferative disorders” (The Trustees of the University of Pennsylvania, priority 2000, dated 2014)",
  "key": {"A1 tumors": {"system": "A1 tumors", "assay": "inhibition of tumor establishment in SCID mice", "type": "in vivo", "procedure": "(§1) Establishment and passaging of the xenotransplanted tumors was performed as described (Douglas et al., 1998, Cytometry 32:57-65; Kawamata et al., 1998, Blood 91:561-569; Pepper et al., 1998, Leuk. Res. 22:439-444). To deplete macrophages and NK cells and to enhance tumor engraftment, SCID mice were injected intraperitoneally with 30-45 milligrams per kilogram of etoposide (Bedford Laboratories, Bedford, Ohio) 4 days prior to implantation of the human EBV^+ B-cell lines (Visonneau et al., 1998, Am. J. Path. 152:1299-1311). Ten million cells of each line employed (see results) were inoculated into mice either intraperitoneally or subcutaneously in 200 microliters of Dulbecco's Phosphate Buffered Saline (DPBS; BioWhittaker, Walkersville, Md.). Ascites or palpable subcutaneous tumors developed 3-5 weeks after cell injection.\n(§2) Tumor treatment and growth inhibition experiments were performed using fragments of the established subcutaneous tumors (Pasqualucci et al., 1995, Blood 85:2139-2146, Visonneau et al., 1998, Am. J. Path. 152:1299-1311). For this purpose, mice were anesthetized with KETALAR™ (ketamine, Parke-Davis, Morris Plains, N.J.) by intraperitoneal injection of 100 milligrams per kilogram. Next, the primary tumor was aseptically removed and freed from necrotic, fatty and connective tissue and divided into small pieces of roughly equal size and 3-4 pieces per mouse were injected subcutaneously. Treatment of established tumors with SDZ RAD was started when tumors reached 5 millimeters diameter. In growth inhibition experiments, the treatment was initiated 3 days prior to the tumor implantation. Tumor volume in all experiments was determined from the equation: volume=0.4ab^2, where a and b designate respectively long and short diameter of the tumor. The transplanted mice were monitored for tumor growth for a period of up to 2 months. Five milligrams per kilogram of SDZ RAD was administered once a day by gavage as described (Schuurman et al., 1997, Transplantation 64:32-5; Schuler et al. 1997, Transplantation 64:36-42).\n(§3) Mice were sacrificed by exposure to FORANE™ (isoflurane, Ohmeda, Liberty Place, N.J.) on day 29 in the drug toxicity study, on day 40-55 in the tumor growth inhibition study or when tumors achieved approximately 2 centimeter diameter, or when ulceration of the skin, signs of severe respiratory distress, weakness, or lethargy appeared. Complete autopsy was performed on all mice at the end of the study regardless of their appearance. Tumor and internal organs (spleen, liver, lung, heart, kidney, small and large intestines, femoral bone for bone marrow) were fixed in 10% (v/v) formalin, embedded in paraffin, cut into […] sections, transferred to glass slides, and stained with hematoxylin and eosin. Representative tumor fragments were stained immunohistochemically by standard streptavidin-biotin complex technique using commercially available reagents (Research Genetics, Huntsville, Ala.), antibodies: anti-CD20 (L-26) and LMP-1 (both from DAKO, Carpinteria, Calif.) and Ki67 (mib1; Immunotech, Westbrook, Me.). EBV-encoded RNA (EBER-1), and detected using commercially available reagents.\n(§4) Because SDZ RAD, when used as an immunosuppressive agent, is administered chronically to transplant patients, its main therapeutic impact on PTLDs may be to inhibit their development rather than to alleviate the clinically symptomatic cases. To test if SDZ RAD can inhibit establishment of PTLD-like lymphomas, daily treatment with 5 milligrams per kilogram body weight of the drug was initiated 3 days prior to the tumor implantation. […] On day 25, the treated tumors measured in average 38 cubic millimeters, the untreated approximately 1940 cubic millimeters. On day 45, the median volume of the treated tumor was 480 cubic millimeters. In 20A tumors, 6 out of 11 tumors were not detectable on day 25; the median volume of the remaining 5 was 20 cubic millimeters. The average untreated tumor measured 210 cubic millimeters on that day. […]"}, "20A tumors": {"system": "20A tumors", "assay": "inhibition of tumor establishment in SCID mice", "type": "in vivo", "procedure": "as §1, §2, §3, §4"}, "15A tumors": {"system": "15A tumors", "assay": "inhibition of tumor establishment in SCID mice", "type": "in vivo", "procedure": "as §1, §2, §3, §4"}, "[1]": {"system": "PTLD-like B cell lines 20A, A1, A2D6, and LCL", "assay": "cell cycle progression by propidium iodide flow cytometry", "type": "cell-based, human", "settings": "48 hours", "procedure": "The cell lines to be examined were cultured with several concentrations of SDZ RAD (0 to 10 nanomolar) for 24-48 hours. The cells were washed with DPBS and stain solution (pH 7.2) containing 3% PEG 6000, 50 micrograms per milliliter DNA fluorochrome propidium iodide (PI; Calbiochem, San Diego, Calif.), annexin V-FITC as described (Douglas et al., 1998, Cytometry 32:57-65) 0.1% (v/v) TRITON™ X (Sigma, St. Louis, Mo.), 4 millimolar citrate buffer pH 7.8, and 360 units per milliliter RNase A (Worthington Biochemicals, Freehold, N.J.) for 30 minutes at 37 C. Next, salt solution pH 7.2 (3% w/v PEG 6000, PI 50 micrograms per milliliter, 0.1% v/v TRITON™ X, and 0.4 molar NaCl) was added, and the cells were incubated at 4° C. in the dark for 1 hour before flow cytometry analysis was performed, as described (Douglas et al., 1998, Cytometry 32:57-65; Kawamata et al., 1998, Blood 91:561-569; Pepper et al., 1998, Leuk. Res. 22:439-444).\nRapamycin and, presumably, O-alkylated rapamycin derivatives such as SDZ RAD, block cell cycle progression at the early stage in normal T cells (Terada et al., 1993, J. Cell Physiol. 154:7-15; Flanagan et al., 1993, Ann. N.Y. Acad. Sci. 696:31-37). […] The effect was drug dose and cell-line type dependent. […] Percentages of cells in the later phases of the cell cycle (G2-M and S) were diminished proportionally. A1 and, to a lesser degree, A2D6 cell line were particularly sensitive to SDZ RAD. Four EBV^+ B-cell lines were cultured for 48 hours with 0-10 nanomolar SDZ RAD, labeled with propidium iodine, and analyzed by flow cytometry."}, "[2]": {"settings": "day 25, treatment from 3 days prior to implantation"}},
  "note": "Values joined by “and” are separate entries in the source; they are usually repeats but may differ in a detail not shown here. Identical values can stand only once.",
  "data": [
    {"smiles": "CO[C@H]1C[C@@H]2CC[C@@H](C)[C@@](O)(O2)C(=O)C(=O)N2CCCC[C@H]2C(=O)O[C@H]([C@H](C)C[C@@H]2CC[C@@H](OCCO)[C@H](OC)C2)CC(=O)[C@H](C)/C=C(\\C)[C@@H](O)[C@@H](OC)C(=O)[C@H](C)C[C@H](C)/C=C/C=C/C=C/1C", "note": "[SDZ RAD, 40-O-(2-hydroxy)ethyl-rapamycin]", "values": [
      {"measurement": "tumor detection in the 8 treated mice", "setting": "A1 tumors; day 29, treatment from 3 days prior to implantation", "value": "no tumor could be detected"},
      {"measurement": "mice with no evidence of tumor (establishment completely inhibited)", "setting": "A1 tumors; day 53, 8 treated mice", "value": "5 and 5/8"},
      {"measurement": "mice with small, histologically confirmed lymphomas", "setting": "A1 tumors; day 53, 8 treated mice", "value": 3},
      {"measurement": "volume of the small lymphomas", "setting": "A1 tumors; day 53, the 3 mice with lymphoma", "value": "< 5", "unit": "cubic millimeters"},
      {"measurement": "treated mice with no signs of tumor (establishment completely inhibited)", "setting": "20A tumors; 11 treated mice, microscopic evaluation revealed no malignant cells", "value": "Five and 5/11"},
      {"measurement": "median volume of the remaining 5 tumors", "setting": "20A tumors; day 25", "value": 20, "unit": "cubic millimeters"},
      {"measurement": "tumors not detectable", "setting": "20A tumors; [2]", "value": "6 out of 11"},
      {"measurement": "volume of treated tumors (none exceeded)", "setting": "20A tumors; day 45", "value": "≤ 150", "unit": "cubic millimeters"},
      {"measurement": "effect on tumor growth and establishment", "setting": "15A tumors; 5 milligrams per kilogram body weight daily, initiated 3 days prior to tumor implantation", "value": "profoundly delayed the tumor growth, but was unable to inhibit the tumor establishment"},
      {"measurement": "average treated tumor volume", "setting": "15A tumors; [2]", "value": 38, "unit": "cubic millimeters"},
      {"measurement": "median volume of the treated tumor", "setting": "15A tumors; day 45, treatment from 3 days prior to implantation", "value": 480, "unit": "cubic millimeters"},
      {"measurement": "cell cycle progression at the early, G0/G1 phase", "setting": "[1]; all 4 cell lines, 0-10 nanomolar", "value": "markedly inhibited"},
      {"measurement": "increase in the percentage of cells in G0/G1", "setting": "[1]; highest dose 10 nanomolar", "value": "10-70%"},
      {"measurement": "increase in the percentage of cells in G0/G1", "setting": "[1]; low doses 1-2 nanomolar", "value": "5-25"}
    ]}
  ]
}
